# Earlier results, collected in patent publication US20220401449A1, “COMPOSITIONS PROVIDING SLOW RELEASE OF CAFFEINE AND BEVERAGES COMPRISING THE SAME” (priority 2021, published 2022).
# Read-outs that look alike come from different tables or passages of the source.
compound,measurement,setting,value
Cn1c(=O)c2c(ncn2C)n(C)c1=O [caffeine],caffeine's saturation concentration in water,80° C.,about 200 mg/ml
same,caffeine's saturation concentration in water,room temperature,about 16 mg/ml
